Laboratory results: patent US20100150845A1, “SYSTEM AND METHOD FOR THE DELIVERY OF A SANITIZING FOAM” (GREEN SOURCE AUTOMATED, LLC, priority 2008, published 2010)
Where two headings read alike, the source gives them in different places.

Tests used:
[1] = cited from earlier work
[2] = Gas dissolved in teat dip solution under pressure; type: physicochemical; conditions: standard room temperature and 100 psi pressure
Source text: The pressure vessel was constructed from a 0.1 m outside diameter piece of stainless steel tubing. The ends of the tube were capped with tri clover fittings to allow ease of access. The tri-clover caps were modified by adding two entry points on the proximal cap. One entry point on the proximal cap is to allow propellant/diffused gas to be introduced and the other is used to bleed off atmospheric air, when the tank was initially filled with propellant/diffused gas and to relieve pressure before refilling. On the distal cap of the tank two openings were added, each with tubing securely attached and each tube going to a manual shut off valve with a spray nozzle attached. A propellant/diffusion gas source with regulator was attached to the pressure vessel through the entry point on the proximal cap. The pressure vessel is filled about half full with teat dip solution, closed and the tank is pressurized with approximately 100 pounds per square inch (psi) of propellant/diffusion gas, except for the 50% carbon dioxide and 50% nitrous oxide propellant/diffusion gas which is set at 150 psi. The distance and angle from nozzle to teat is 0.15 m and 45 degrees from the horizontal (which were set to mimic a robotic tool used for some embodiments). […]

| volumes of gas dissolved per volume of dip solution [2] | volumes of gas dissolved in one volume of the dip solution [2] | Compound | vapor pressure ([1]; at 185° K.) | vapor pressure ([1]; at 290° K.) |
| --- | --- | --- | --- | --- |
| approximately 4.5 volumes |  | O=C=O [CO2, Carbon dioxide] | approximately 0.45 bar | approximately 50 bar |
|  | approximately four | [N-]=[N+]=O [Example N2O, nitrous oxide] | approximately 1 bar | approximately 50 bar |
